Laboratory results: patent publication US20100317647A1 (priority 2009, published 2010)

molecular target: human Cat S (Homo sapiens, UniProt P25774); assay: Cathepsin enzyme inhibition assay (fluorogenic peptide substrate cleavage); format: biochemical; details: human Cat S 1 nM; substrate Z-Val-Val-Arg-AMC 20 μM; pH 6.5; fluorescence over 20 minutes
Outline: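 IC50 values derived from fluorescence increase (ex 360 nm, em 465 nm) monitored for 20 minutes after substrate addition. Enzyme held at 1 nM with 20 μM Z-Val-Val-Arg-AMC, in pH 6.5 potassium phosphate buffer containing DTT, EDTA and Triton X-100.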

human Cat S, sequence (P25774 115-331): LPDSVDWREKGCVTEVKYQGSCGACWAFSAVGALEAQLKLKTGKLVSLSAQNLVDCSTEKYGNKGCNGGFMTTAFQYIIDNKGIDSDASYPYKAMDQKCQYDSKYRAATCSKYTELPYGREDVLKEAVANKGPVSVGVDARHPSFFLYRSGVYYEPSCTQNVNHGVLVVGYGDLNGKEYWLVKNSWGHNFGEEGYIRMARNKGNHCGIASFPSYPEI

Compound	IC50
COc1ccc(COC[C@@H]2C[C@H](S(=O)(=O)c3ccc(F)cc3Cl)C[C@H]2C(=O)NC2(C#N)CC2)cc1 [Example 153, (1R,2R,4S)-4-(2-Chloro-4-fluoro-benzenesulfonyl)-2-(4-methoxy-benzyloxymethyl)-cyclopentanecarboxylic acid (1-cyano-cyclopropyl)-amide]	25.5 nM
N#CC1(NC(=O)[C@@H]2C[C@@H](S(=O)(=O)c3ccc(F)cc3Cl)C[C@H]2CF)CC1 [Example 157, (1R,2R,4R)-4-(2-Chloro-4-fluoro-benzenesulfonyl)-2-fluoromethyl-cyclopentanecarboxylic acid (1-cyano-cyclopropyl)-amide]	61.5 nM
COC[C@@H]1C[C@H](S(=O)(=O)c2ccccc2Cl)C[C@H]1C(=O)NCC#N (single isomer, unassigned) [Example 103]	20.7 nM
N#CC1(NC(=O)[C@@H]2C[C@@H](S(=O)(=O)c3ccccc3C(F)(F)F)C[C@H]2OC2CCC2)CC1 (racemic) [Example 220, (1R,2R,4R) and (1S,2S,4S)-2-Cyclobutoxy-4-(2-trifluoromethyl-benzenesulfonyl)-cyclopentanecarboxylic acid (1-cyano-cyclopropyl)-amide]	3.6 nM
N#CC1(NC(=O)[C@@H]2C[C@@H](S(=O)(=O)c3ccccc3Cl)C[C@H]2OCc2ccc(Cl)c(F)c2)CC1 (racemic) [Example 249, (1R,2R,4R) and (1S,2S,4S)-4-(2-Chloro-benzenesulfonyl)-2-(4-chloro-3-fluoro-benzyloxy)-cyclopentanecarboxylic acid (1-cyano-cyclopropyl)-amide]	6.95 nM
N#CCNC(=O)[C@@H]1CC[C@H](S(=O)(=O)c2ccccc2Cl)C1 (racemic) [Example 43, 3-(2-Chloro-benzenesulfonyl)-cyclopentanecarboxylic acid cyanomethyl-amide]	345 nM
N#CC1(NC(=O)[C@@H]2C[C@@H](S(=O)(=O)c3ccccc3)C[C@H]2C(=O)N2CCCCC2)CC1 [Example 12, (1R,2R,4R)-4-Benzenesulfonyl-2-(piperidine-1-carbonyl)-cyclopentanecarboxylic acid (1-cyano-cyclopropyl)-amide]	0.8 nM
N#CC1(NC(=O)[C@@H]2C[C@@H](S(=O)(=O)c3ccccc3C(F)(F)F)C[C@H]2OC2CCCC2)CC1 (racemic) [Example 221, (1R,2R,4R) and (1S,2S,4S)-2-Cyclopentyloxy-4-(2-trifluoromethyl-benzenesulfonyl)-cyclopentanecarboxylic acid (1-cyano-cyclopropyl)-amide]	8.35 nM
N#CC1(NC(=O)[C@@H]2C[C@@H](S(=O)(=O)c3ccc(F)cc3Cl)C[C@H]2CO)CC1 [Example 155, (1R,2R,4S)-4-(2-Chloro-4-fluoro-benzenesulfonyl)-2-hydroxymethyl-cyclopentanecarboxylic acid (1-cyano-cyclopropyl)-amide]	107 nM
C[C@H](Oc1ccc(S(=O)(=O)[C@@H]2C[C@@H](C(=O)NC3(C#N)CC3)[C@H](C(=O)N3CC(F)(F)C3)C2)c(Cl)c1)C(F)(F)F [Example 135, (1R,2R,4R)-4-[2-Chloro-4-((S)-2,2,2-trifluoro-1-methyl-ethoxy)-benzenesulfonyl]-2-(3,3-difluoro-azetidine-1-carbonyl)-cyclopentanecarboxylic acid (1-cyano-cyclopropyl)-amide]	2.4 nM
CC(C)(C)N1CCN(c2ccc(S(=O)(=O)[C@@H]3C[C@@H](C(=O)NC4(C#N)CC4)[C@H](C(=O)N4CC(F)(F)C4)C3)c(Cl)c2)CC1 [Example 160, (1R,2R,4R)-4-[4-(4-tert-Butyl-piperazin-1-yl)-2-chloro-benzenesulfonyl]-2-(3,3-difluoro-azetidine-1-carbonyl)-cyclopentanecarboxylic acid (1-cyano-cyclopropyl)-amide]	0.165 nM
CC(C)CS(=O)(=O)[C@@H]1C[C@@H](C(=O)NCC#N)[C@H](C(=O)N2CCOCC2)C1 [Example 39, (1R,2R,4R)-4-(2-Methyl-propane-1-sulfonyl)-2-(morpholine-4-carbonyl)-cyclopentanecarboxylic acid cyanomethyl-amide]	445 nM
N#CC1(NC(=O)[C@@H]2C[C@H](S(=O)(=O)c3ccccc3Cl)C[C@H]2COc2ccc(Cl)cc2)CC1 (single isomer, unassigned) [Example 71]	3080 nM
N#CC1(NC(=O)[C@H]2CC[C@@H](S(=O)(=O)c3ccc(OCC(F)(F)F)cc3Cl)C2)CC1 (single isomer, unassigned) [Example 99]	500 nM
CO[C@@H]1C[C@H](S(=O)(=O)c2ccccc2C(F)(F)F)C[C@H]1C(=O)NCC#N (racemic) [Example 47, (1R,2R,4R) and (1S,2S,4S)-2-Methoxy-4-(2-trifluoromethyl-benzenesulfonyl)-cyclopentanecarboxylic acid cyanomethyl-amide]	7.8 nM
N#CC1(NC(=O)[C@@H]2C[C@@H](S(=O)(=O)c3ccccc3Cl)C[C@H]2OCc2ccc(Br)cc2)CC1 (racemic) [Example 154, (1R,2R,4R) and (1S,2S,4S)-2-(4-Bromo-benzyloxy)-4-(2-chloro-benzenesulfonyl)-cyclopentanecarboxylic acid (1-cyano-cyclopropyl)-amide]	7.55 nM
CO[C@@H]1C[C@H](S(=O)(=O)c2ccc(N3CCN(CC(F)(F)F)CC3)cc2C(F)(F)F)C[C@H]1C(=O)NC1(C#N)CC1 (racemic) [Example 193, (1R,2R,4R) and (1S,2S,4S)-2-Methoxy-4-{4-[4-(2,2,2-trifluoro-ethyl)-piperazin-1-yl]-2-trifluoromethyl-benzenesulfonyl}-cyclopentanecarboxylic acid (1-cyano-cyclopropyl)-amide]	1.67 nM

More lines, in order of falling IC50, values ahead:

IC50	Compound
6690 nM	N#CCNC(=O)[C@H]1C[C@@H](S(=O)(=O)c2ccccc2Cl)C[C@@H]1O (racemic) [Example 53, (1S,2S,4R) and (1R,2R,4S)-4-(2-Chloro-benzenesulfonyl)-2-hydroxy-cyclopentanecarboxylic acid cyanomethyl-amide]
290 nM	N#CC1(NC(=O)[C@H]2CC[C@H](S(=O)(=O)c3ccc(N4CCOCC4)cc3Cl)C2)CC1 (racemic) [Example 94, (1S,3S) and (1R,3R)-3-(2-Chloro-4-morpholin-4-yl-benzenesulfonyl)-cyclopentanecarboxylic acid (1-cyano-cyclopropyl)-amide]
19 nM	CN1CCC(C#N)(NC(=O)[C@@H]2C[C@@H](S(=O)(=O)c3ccc(Cl)cc3Cl)C[C@H]2OCc2ccc(Cl)cc2)CC1 (racemic) [Example 234, (1R,2R,4R) and (1S,2S,4S)-2-(4-Chloro-benzyloxy)-4-(2,4-dichloro-benzenesulfonyl)-cyclopentanecarboxylic acid (4-cyano-1-methyl-piperidin-4-yl)-amide]
10.9 nM	N#CC1(NC(=O)[C@@H]2C[C@@H](S(=O)(=O)c3ccccc3)C[C@H]2C(=O)N2CCNCC2)CC1 [Example 14, (1R,2R,4R)-4-Benzenesulfonyl-2-(piperazine-1-carbonyl)-cyclopentanecarboxylic acid (1-cyano-cyclopropyl)-amide]
2.35 nM	CCN1CCC(C#N)(NC(=O)[C@@H]2C[C@@H](S(=O)(=O)c3ccc(-c4cnn(C)c4)cc3C(F)(F)F)C[C@H]2OC)CC1 (racemic) [Example 238, (1R,2R,4R) and (1S,2S,4S)-2-Methoxy-4-[4-(1-methyl-1H-pyrazol-4-yl)-2-trifluoromethyl-benzenesulfonyl]-cyclopentanecarboxylic acid (4-cyano-1-ethyl-piperidin-4-yl)-amide]
1.6 nM	Cc1cc(Cl)ccc1S(=O)(=O)[C@@H]1C[C@@H](C(=O)NCC#N)[C@H](C(=O)N2CCN(C)CC2)C1 [Example 33, (1R,2R,4R)-4-(4-Chloro-2-methyl-benzenesulfonyl)-2-(4-methyl-piperazine-1-carbonyl)-cyclopentanecarboxylic acid cyanomethyl-amide]
1.45 nM	CC(=O)N1CCN(c2ccc(S(=O)(=O)[C@@H]3C[C@@H](C(=O)NC4(C#N)CC4)[C@H](C(=O)N4CCC(F)(F)C4)C3)c(Cl)c2)CC1 [Example 208, (1R,2R,4R)-4-[4-(4-Acetyl-piperazin-1-yl)-2-chloro-benzenesulfonyl]-2-(3,3-difluoro-pyrrolidine-1-carbonyl)-cyclopentanecarboxylic acid (1-cyano-cyclopropyl)-amide]
1.2 nM	CC(=O)N1CCN(c2ccc(S(=O)(=O)C3CC(C(=O)NC4(C#N)CC4)C(C(=O)N4CC(F)(F)C4)C3)c(C(F)(F)F)c2)CC1 (stereo not shown) [Example 131, 4-[4-(4-Acetyl-piperazin-1-yl)-2-trifluoromethyl-benzenesulfonyl]-2-(3,3-difluoro-azetidine-1-carbonyl)-cyclopentanecarboxylic acid (1-cyano-cyclopropyl)-amide]
1.2 nM	N#CC1(NC(=O)C2CC(S(=O)(=O)c3ccc(N4CCC(F)(F)C4)cc3C(F)(F)F)CC2C(=O)N2CC(F)(F)C2)CC1 (stereo not shown) [Example 132, 2-(3,3-Difluoro-azetidine-1-carbonyl)-4-[4-(3,3-difluoro-pyrrolidin-1-yl)-2-trifluoromethyl-benzenesulfonyl]-cyclopentanecarboxylic acid (1-cyano-cyclopropyl)-amide]
1.07 nM	N#CC1(NC(=O)[C@@H]2C[C@@H](S(=O)(=O)c3ccc(Br)cc3Cl)C[C@H]2C(=O)N2CCC(F)(F)C2)CC1 [Example 187, (1R,2R,4R)-4-(4-Bromo-2-chloro-benzenesulfonyl)-2-(3,3-difluoro-pyrrolidine-1-carbonyl)-cyclopentanecarboxylic acid (1-cyano-cyclopropyl)-amide]
0.7 nM	N#CCNC(=O)[C@@H]1C[C@@H](S(=O)(=O)c2ccc(F)c(Cl)c2)C[C@H]1C(=O)N1CCOCC1 [Example 7, (1R,2R,4R)-4-(3-Chloro-4-fluoro-benzenesulfonyl)-2-(morpholine-4-carbonyl)-cyclopentanecarboxylic acid cyanomethyl-amide]
